{
  "source": "patent US10154669B2",
  "about": "“Improving color and release profile of resin compositions comprising silver nanoparticles” (The Board of Regents of the University of Texas System, priority 2013, dated 2018)",
  "origin": "cited, not measured here",
  "details": "in water",
  "data": [
    {"smiles": "C=C(C)C(=O)OC", "note": "[methyl methacrylate]", "values": [
      {"measurement": "water solubility", "value": "about 1.6 g in 100 g of water"}
    ]}
  ]
}
